Data on 17 molecules can be found in patent publication US9890117B2, “Benzamide compounds and related methods of use” (Northwestern University, priority 2012, dated 2018).

The structures appear in SMILES notation.

In the test the target is T1, SIRT2 (Homo sapiens, UniProt Q8IXJ6).
T1 construct: recombinant active enzymes SIRT1, SIRT2, and the catalytically active fragment of SIRT3
T1 sequence (Q8IXJ6 1-389): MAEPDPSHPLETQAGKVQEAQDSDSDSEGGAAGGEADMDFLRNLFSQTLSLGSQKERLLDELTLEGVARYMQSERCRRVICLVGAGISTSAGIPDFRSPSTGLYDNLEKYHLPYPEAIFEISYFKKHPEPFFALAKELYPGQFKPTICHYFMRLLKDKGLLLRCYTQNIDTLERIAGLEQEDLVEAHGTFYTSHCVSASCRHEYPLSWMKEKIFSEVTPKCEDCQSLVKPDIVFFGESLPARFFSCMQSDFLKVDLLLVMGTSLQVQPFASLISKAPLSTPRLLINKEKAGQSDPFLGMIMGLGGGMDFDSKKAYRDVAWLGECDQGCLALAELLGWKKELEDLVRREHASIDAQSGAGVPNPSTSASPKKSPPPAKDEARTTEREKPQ
Nature of the test: Fluor-de-Lys biochemical sirtuin deacetylation assay, SIRT2. As to conditions: 10 μM.

Molecule `CC(Oc1cccc(C(=O)Nc2ccc(C#N)cc2)c1)c1ccc(C2(C)COC2)cc1` (centres unmarked) [Compound 216Aj, N-(4-cyanophenyl)-3-(1-(4-(3-methyloxetan-3-yl)phenyl)ethoxy)benzamide] showed an inhibition at 10 µM of 43%. `CC(=O)c1ccc([C@@H](C)Oc2cccc(C(=O)Nc3ccc(C#N)cc3)c2)cc1` [Compound 216Ak, (R)-3-(1-(4-acetylphenyl)ethoxy)-N-(4-cyanophenyl)benzamide] had an inhibition at 10 µM of 98%.

As to `CC(=O)c1ccc([C@H](C)Oc2cccc(C(=O)Nc3ccc(C#N)cc3)c2)cc1` [Compound 216Al, (S)-3-(1-(4-acetylphenyl)ethoxy)-N-(4-cyanophenyl)benzamide], testing at 10 µM gave an inhibition of 60%.

For `CC(O)c1ccc([C@@H](C)Oc2cccc(C(=O)Nc3ccc(C#N)cc3)c2)cc1` (stereo partly drawn) [Compound 216Am, N-(4-cyanophenyl)-3-((1R)-1-(4-(1-hydroxyethyl)phenyl)ethoxy)benzamide], testing at 10 µM gave an inhibition of 21%.

In the case of `CC(=O)c1ccc([C@@H](C)Oc2cncc(C(=O)Nc3ccc(C#N)cc3)c2)cc1` [Compound 216An, (R)-5-(1-(4-acetylphenyl)ethoxy)-N-(4-cyanophenyl)nicotinamide], at 10 µM the inhibition was 95%. The figure for `CCC(CC)Oc1cccc(C(=O)Nc2ccc(C#N)cc2)c1` [Compound 216Ao, N-(4-cyanophenyl)-3-(pentan-3-yloxy)benzamide] is 37%; for `CC(=O)c1ccc(C(Oc2cccc(C(=O)Nc3ccc(C#N)cc3)c2)C(C)C)cc1` (centres unmarked) [Compound 216Ap, 3-(1-(4-acetylphenyl)-2-methylpropoxy)-N-(4-cyanophenyl)benzamide] it is 44%. With `CC(O)c1ccc([C@@H](C)Oc2cncc(C(=O)Nc3ccc(C#N)cc3)c2)cc1` (stereo partly drawn) [Compound 216Aq, N-(4-cyanophenyl)-5-((1R)-1-(4-(1-hydroxyethyl)phenyl)ethoxy)nicotinamide], the inhibition at 10 µM turned out to be 0%. The figure for `CC(=O)c1ccc(COc2cccc(C(=O)Nc3ccc(C#N)cc3)c2)cc1` [Compound 216Ar, 3-((4-acetylbenzyl)oxy)-N-(4-cyanophenyl)benzamide] is 27%; for `CC(=O)c1ccc(NC(=O)c2cccc(O[C@H](C)c3ccc(C(C)=O)cc3)c2)cc1` [Compound 216As, (R)—N-(4-acetylphenyl)-3-(1-(4-acetylphenyl)ethoxy)benzamide] it is 97%.

`CC(=O)c1ccc(C(C)(C)Oc2cccc(C(=O)Nc3ccc(Br)cc3)c2)cc1` [Compound 216At, 3-((2-(4-acetylphenyl)propan-2-yl)oxy)-N-(4-bromophenyl)benzamide] came in with an inhibition at 10 µM of 34%.

In turn, `CC(=O)c1ccc(C(C)(C)Oc2cccc(C(=O)Nc3ccc(C(F)(F)F)cc3)c2)cc1` [Compound 216Au, 3-((2-(4-acetylphenyl)propan-2-yl)oxy)-N-(4-(trifluoromethyl)phenyl)benzamide] showed an inhibition at 10 µM of 27%. In the case of `CC(=O)c1ccc(C(C)Oc2cccc(C(=O)Nc3ccc(Cl)cc3)c2)cc1` (centres unmarked) [Compound 216Av, 3-(1-(4-acetylphenyl)ethoxy)-N-(4-chlorophenyl)benzamide], testing at 10 µM gave an inhibition of 89%. The figure for `CC(=O)c1ccc(C(C)Oc2cccc(C(=O)Nc3ccc(F)cc3)c2)cc1` (centres unmarked) [Compound 216Aw, 3-(1-(4-acetylphenyl)ethoxy)-N-(4-fluorophenyl)benzamide] is 62%; for `COc1ccc(NC(=O)c2cccc(OC(C)c3ccc(C(C)=O)cc3)c2)cc1` (centres unmarked) [Compound 216Ax, 3-(1-(4-acetylphenyl)ethoxy)-N-(4-methoxyphenyl)benzamide] it is 56%; for `CC(=O)c1ccc(NC(=O)c2cccc(OC(C)c3ccc(C(C)=O)cc3)c2)cc1` (centres unmarked) [Compound 216Ay, N-(4-acetylphenyl)-3-(1-(4-acetylphenyl)ethoxy)benzamide] it is 94%. The figure for `CC(=O)c1ccc(C(C)Oc2cccc(C(=O)Nc3ccc(CC#N)cc3)c2)cc1` (centres unmarked) [Compound 216Az, 3-(1-(4-acetylphenyl)ethoxy)-N-(4-(cyanomethyl)phenyl)benzamide] is 58%.
